Source: publication PMC10587169, “Tuning aminopolycarboxylate chelators for efficient complexation of trivalent actinides” (Scientific Reports, 2023)
Where two headings read alike, the source gives them in different places. Marks after values point to notes of the source that are not given here.

Tests used:
[1] = I = 0.16 M NaCl, uncertainties 1σ; cited from earlier work
[2] = cited from earlier work
[3] = Stability constants reported in literature; format: binding; conditions: across the lanthanide series
[4] = cited from earlier work; remark: listed apart in the source
[5] = Potentiometric titration, acid dissociation constants; format: physicochemical; conditions: aqueous 2.0 M (Na+/H+)ClO4 electrolyte solution
Protocol: All potentiometric titrations were run using a Mettler Toledo T90 autotitrator equipped with an Orion Ross Semi-micro glass electrode with the junction stabilization solution changed to 5.0 M NaCl to prevent precipitation with perchlorate media. All titrations were performed under a hydrated nitrogen atmosphere. The forward titration measurements (acidic titrand, basic titrant) of H4octapa in nitrate electrolyte medium were performed as described previously due to the limited solubility of this ligand in a 2 M (Na^+/H^+)ClO4 medium. Acid dissociation constants of H4octapa in perchlorate electrolyte medium were also determined by titrating in reverse (basic titrand, acidic titrant) to alleviate the solubility concerns. Titrations of H4pypa-peg were performed in reduced-volume glass titration cups (10 mL nominal) due to the limited supply of this ligand. All potentiometric titrations were run in triplicate. The choice of using p[H^+] was explained in Heathman et al.[15], and the calibration of the p[H^+] scale utilized Gran analysis through titration of a strong acid with the base used in the potentiometric titrations[29]–[31]. Potentiometric titration data was modeled and analyzed using Hyperquad2013 to determine acid dissociation and metal complexation stability constants[32],[33].
Changes in hydrogen ion concentration were monitored using a glass electrode for a solution of H4octapa as either NaOH or HClO4 were titrated into the solutions. […] The experimental potentiometric curve collected for a forward titration of H4octapa in (Na^+/H^+)NO3 is presented in Fig. 3A, alongside the distribution curves for the identified HnL species. Following those studies, the acid/base conditions were reversed and octapa^4− was titrated in 2.0 M (Na^+/H^+)ClO4 using HClO4 (SI Figure S7). The potentiometric curves are well respresented by five proton dissociation equilibria. The calculated equilibrium constants correspond with the protonation reactions for two aliphatic amines, two pyridine nitrogens, and one carboxylate group with the protonation sequence described by Eq. (2). The acid dissociation constants (pKa = − log10Ka) for H4octapa are reported in Table 1 alongside previously reported values in the literature.
The experimental potentiometric titration curve and the distribution curves for the associated HnL species for H4pypa-peg are presented in Fig. 3B. […] For comparison, the protonation equilibria of H4edta were also studied in 2.0 M (Na^+/H^+)ClO4. The pKa values for H4edta are listed in Table 2 and collected potentiometric titration curves (forward and reverse) are presented in SI Figure S8. For H4pypa-peg coordination pocket the protonation of H9L^5+, H7L^3+, and H6L^2+ cannot be characterized using a glass electrode. The H6L^2+ species likely represents a protonated carboxylate group, while H5L^+ and H4L may describe the pyridinecarboxylate nitrogens. The equilibrium involving H3L^− likely describes the dissociation of the protonated pyridine nitrogen, while the two most basic species in this ligand (HL^3− and H2L^2−) are likely the bridging amines in the H4pypa-peg backbone. Equation (3) describes the protonation sequence for H4pypa-peg.3 H10-aL^+6-a⇆H9-aL^+5-a+H^+Ka=H^+·H9-aL^+5-a/H10-aL^+6-aa=1…9

[6] = Spectrophotometric titration; format: binding; conditions: spectrophotometrically determined in 2.0 M (Na+/H+)ClO4, 20 °C
Excerpt: Changes in the optical absorption characteristics of Nd^3+ were monitored using a Cary 6000i UV/Vis–NIR Spectrometer (Agilent) using 1 cm semimicro quartz cuvettes (Starna) in double-beam mode, where the ^4I9/2 → ^4G5/2, ^2G7/2 transitions[34] were monitored between 560 and 605 nm with a 0.075 nm interval and 1.0 nm spectral bandwidth. Changes in the optical absorption characteristics of ^243Am^3+ and ^248Cm^3+ were monitored using a Flame-S-VIS–NIR-ES spectrometer coupled to a DH-2000-BAL dual-mode light source (Ocean Optics) with a single 1 cm semimicro quartz cuvette (Starna). The light source and spectrometer were optically coupled to the CUV sample (Ocean Optics) holder using 2 m fiberoptics (200 μm) and the parameters for acquisition were 0.369 nm interval and 1000 scans averaged with an integration time/scan 1.08 ms (total acquisition time ~ 1 s). The complexation of Am^3+ with the ligands was monitored in the 495–525 nm spectral region, looking at the ^7F0′ → ^5L6′ transition[23],[35]. For Cm^3+, ligand complexation was monitored in the 365–410 nm spectral region, looking at the ^8S7/2 → ^2Ji (i = {15}, {13,9}, {11,17}) manifold transitions[24],[25],[36]. Changes in aqueous p[H^+] were monitored throughout each titration step using a Gran-calibrated Orion Ross Semi-micro glass electrode. Baseline correction was applied to all datasets and was typically a simple linear subtraction. However, in the case of the ^248Cm/H4pypa-peg spectra, the tail end of the ligand absorption overlapped the hypersensitive Cm peaks. In this case the background correction was applied using a 5th-order empirical polynomial. Finally, the spectroscopic data was analyzed using the HypSpec software package[33],[37]. Full details of the titrand and titrant solutions for each titration are included in the Supplemental Information.
The coordination of Nd^3+ by H4octapa and H4pypa-peg was also studied using spectroscopic methods. Figures 5A, B show the collected spectrophotometric signatures for H4octapa and H4pypa-peg, respectively.4 M^3++L^4-⇆ML^-β101=ML^-/[M^3+]L^4- 5 M^3++H^++L^4-⇆MHLaqβ111=MHLaq/[M^3+L^4-H^+]
Optical absorption features of ^4I9/2 → ^4G5/2, ^2G7/2 transitions for Nd^3+ are perturbed due to the introduction of increasing quantities of complexants, resulting in characteristic red-shifted changes. In Fig. 5A a broad absorption band with λmax = 577 nm is distinctly different to the optical absorption of free Nd^3+ metal in Fig. 5B. The differences can be attributed to the nitrate complexation of Nd^3+ as the spectrophotometric titration with H4octapa was performed in 2.0 M (Na^+/H^+)NO3. […] The HypSpec interpretation of the Nd/pypa-peg titration points to the presence of three absorbing species: Nd^3+, NdHL(aq), and NdL^−. The conditional stability constants obtained spectroscopically are listed in Table 3, showing good agreement with the stability constants determined using potentiometry. The complex stability constants for structurally similar APC ligands found in the literature are also presented (H4pypa[18] and H4py4pa[57]).
2. Spectrophotometric titration parameters
Nd3+: The titrand solution consisting of 1.980 mL of 7.57 mM Nd(ClO4)3 at p[H+] = 1.61 was blended with 1.965 mL of titrant solution containing 7.62 mM Nd3+, 18.57 mM H4octapa, […]
Am3+: The titrand solution consisting of 0.842 mL of 0.810 mM Am(ClO4)3 at p[H+] =1.66 was blended with 0.811 mL of titrant solution containing 0.815 mM Am3+, 8.95 mM H4octapa, at p[H+] ≈ 5.0 – 6.0.
Nd3+: The titrand solution consisting of 0.801 mL of 9.82 mM Nd(ClO4)3 at p[H+] = 1.61 was blended with 1.176 mL of titrant solution containing 9.91 mM Nd3+ and 24.58 mM H4pypa-peg in with p[H+] ≈ 3.0 – 4.0.
Am3+: The titrand solution consisting of 0.806 mL of 0.791 mM Am(ClO4)3 at p[H+] = 1.41 was blended with 0.787 mL of titrant solution containing 0.801 mM Am3+ and 15.09 mM H4pypa-peg at p[H+] ≈ 5 – 6.
Cm3+: The titrand solution consist ing of 0.809 mL of 1.00 mM Cm(ClO4)3 at p[H+] = 1.34 was […]

[7] = in-batch spectrophotometric competition at 25 °C, not evaluated at constant I = 0.16 M NaCl
[8] = potentiometric titrations, I = 0.16 M NaCl, uncertainties 1σ

O=C(O)CN(Cc1cccc(CN(CC(=O)O)Cc2cccc(C(=O)O)n2)n1)Cc1cccc(C(=O)O)n1 [H4pypa]
pKa H2L2- [1]: 6.78 (1) | pKa H3L- [1]: 3.69 (1) | pKa H4L(aq) [1]: 3.02 (1) | pKa H5L+ [1]: 2.23 (2) | pKa H6L2+ [1]: 2.06 (6) | pKa H7L3+ [1]: 1.70 (2) | pKa HL3- [1]: 7.78 (1) | logK111, La [2, 7]: 3.24 (5)* | logβ101 (ML), La [2, 8]: 19.54 (2) | cross-lanthanide stability increase for ML- complexes [3]: 1000 fold | logK111, Lu [4, 7]: 3.60 (6)* | logβ101 (ML), Lu [4, 8]: 22.20 (2)

O=C(O)CN(CCN(CC(=O)O)CC(=O)O)CC(=O)O [H4edta, ethylenediamine-N,N,N′,N′-tetraacetic acid]
pKa ([5]; I = 2.0 M (Na+/H+)ClO4 (Table 2), read-out: pKa H2L2-): 6.23 | pKa ([5]; I = 2.0 M (Na+/H+)ClO4 (Table 2), read-out: pKa H3L-): 2.48 | pKa ([5]; I = 2.0 M (Na+/H+)ClO4 (Table 2), read-out: pKa H4L(aq)): 2.08 | pKa ([5]; I = 2.0 M (Na+/H+)ClO4 (Table 2), read-out: pKa HL3-): 8.71 | pKa ([5]; I = 2.0 M (Na+/H+)ClO4 at 20.0 °C, read-out: pKa H2L species): 6.45 | pKa ([5]; I = 2.0 M (Na+/H+)ClO4 at 20.0 °C, read-out: pKa H3L species): 2.49 | pKa ([5]; I = 2.0 M (Na+/H+)ClO4 at 20.0 °C, read-out: pKa H4L species): 2.02 | pKa ([5]; I = 2.0 M (Na+/H+)ClO4 at 20.0 °C, read-out: pKa HL species): 8.81 | logβ101 (ML), Nd [6]: 14.66(1)
